In brackets after ≈: the same amount, converted by molar mass.
Legend:
[1] = tested on: Staphylococcus aureus; assay: Antibacterial activity against methicillin-susceptible Staphylococcus aureus ATCC 29213 incubated for overnight measured after 20 to 24 hrs by broth microdilution method; format: functional
[2] = tested on: Staphylococcus aureus; assay: Antibacterial activity against methicillin-resistant Staphylococcus aureus ATCC 43300 incubated for overnight measured after 20 to 24 hrs by broth microdilution method; format: functional
[3] = tested on: Staphylococcus aureus; assay: Antibacterial activity against methicillin-resistant Staphylococcus aureus Y069 incubated for overnight measured after 20 to 24 hrs by broth microdilution method; format: functional
[4] = tested on: Pseudomonas aeruginosa; assay: Antibacterial activity against Pseudomonas aeruginosa ATCC 27853 incubated for overnight measured after 20 to 24 hrs by broth microdilution method; format: functional
[5] = tested on: Escherichia coli; assay: Antibacterial activity against Escherichia coli ATCC 25922 incubated for overnight measured after 20 to 24 hrs by broth microdilution method; format: functional
[6] = tested on: Staphylococcus aureus; assay: Antibacterial activity against methicillin-resistant Staphylococcus aureus M013 incubated for overnight measured after 20 to 24 hrs by broth microdilution method; format: functional
[7] = tested on: Staphylococcus aureus; assay: Antibacterial activity against methicillin-resistant Staphylococcus aureus Z234 incubated for overnight measured after 20 to 24 hrs by broth microdilution method; format: functional
[8] = tested on: Staphylococcus aureus; assay: Antibacterial activity against methicillin-resistant Staphylococcus aureus N043 incubated for overnight measured after 20 to 24 hrs by broth microdilution method; format: functional
[9] = tested on: Staphylococcus aureus; assay: Antibacterial activity against methicillin-resistant Staphylococcus aureus C217 incubated for overnight measured after 20 to 24 hrs by broth microdilution method; format: functional
[10] = tested on: Staphylococcus aureus; assay: Antibacterial activity against methicillin-resistant Staphylococcus aureus 4N216 incubated for overnight measured after 20 to 24 hrs by broth microdilution method; format: functional
[11] = tested on: Staphylococcus aureus; assay: Antibacterial activity against methicillin-susceptible Staphylococcus aureus M056 incubated for overnight measured after 20 to 24 hrs by broth microdilution method; format: functional
[12] = tested on: Acinetobacter baumannii; assay: Antibacterial activity against Acinetobacter baumannii ATCC 19606 incubated for overnight measured after 20 to 24 hrs by broth microdilution method; format: functional
[13] = tested on: Enterococcus faecalis; assay: Antibacterial activity against vancomycin-resistant Enterococcus faecalis ATCC 51299 incubated for overnight measured after 20 to 24 hrs by broth microdilution method; format: functional
[14] = tested on: Klebsiella pneumoniae; assay: Antibacterial activity against Klebsiella pneumoneae ATCC 700603 incubated for overnight measured after 20 to 24 hrs by broth microdilution method; format: functional
[15] = tested on: Staphylococcus aureus; assay: Antibacterial activity against vancomycin-intermediate and daptomycin-nonsusceptible methicillin-resistant Staphylococcus aureus Z172 incubated for overnight measured after 20 to 24 hrs by broth microdilution method; format: functional
[16] = tested on: Staphylococcus aureus; assay: Antibacterial activity against methicillin-resistant Staphylococcus aureus L166 incubated for overnight measured after 20 to 24 hrs by broth microdilution method; format: functional
[17] = tested on: Mus musculus; assay: Acute toxicity in ICR mouse assessed as increase in body weight at 100 mg/kg, iv measured daily for 2 weeks; format: organism-based; details: in vivo, 336 h
[18] = tested on: Staphylococcus aureus; assay: Antibacterial activity against methicillin-resistant Staphylococcus aureus 4N216 infected in ICR mouse assessed as mouse survival rate at 20 mg/kg, iv administered as single dose 30 mins post-infection measured day 7 post infection relative to control; format: functional; details: 4N216, iv
[19] = Cmax in ICR mouse plasma at 10 mg/kg, iv measured after 20 mins by LC-MS/MS analysis; format: ADME, organism-based; parameters: dose 10 mg/kg, route intravenous
[20] = Half life in ICR mouse plasma at 10 mg/kg, iv by LC-MS/MS analysis; format: ADME, organism-based
[21] = tested on: Mus musculus; assay: Acute toxicity in ICR mouse assessed as increase in survival at 100 mg/kg, iv measured after 2 weeks; format: organism-based; details: in vivo, 336 h
[22] = AUC (0 to 24 hrs) in ICR mouse plasma at 10 mg/kg, iv by LC-MS/MS analysis; format: ADME, organism-based; parameters: dose 10 mg/kg, time < 24 hr, route intravenous
[23] = Volume of distribution at steady state in ICR mouse plasma at 10 mg/kg, iv by LC-MS/MS analysis; format: ADME, organism-based; details: read-out: Vdss
[24] = tested on: Enterococcus faecalis; assay: Potency index, ratio of […] MIC to compound MIC against vanomycin-resistant Enterococcus faecalis ATCC 51299
[25] = tested on: Staphylococcus aureus; assay: Potency index, ratio of vanomycin MIC to compound MIC against vancomycin-intermediate and daptomycin-nonsusceptible methicillin-resistant Staphylococcus aureus Z172; format: functional
[26] = Clearance in ICR mouse plasma at 10 mg/kg, iv by LC-MS/MS analysis; format: ADME, organism-based

OC(CNCCc1c[nH]c2cc(F)ccc12)Cn1c2ccccc2c2ccccc21 (stereo not drawn)
MIC [1]: 4 µg/mL (≈ 9.96 µM) | MIC [2]: 4 µg/mL (≈ 9.96 µM)

OC(CNCCc1cccc(Cl)c1)Cn1c2ccc(Cl)cc2c2cc(Cl)ccc21 (stereo not drawn)
MIC [3]: 4 µg/mL (≈ 8.93 µM) | MIC [4]: > 64 µg/mL | MIC [5]: > 64 µg/mL | MIC [6]: 4 µg/mL (≈ 8.93 µM) | MIC [7]: 4 µg/mL (≈ 8.93 µM) | MIC [8]: 4 µg/mL (≈ 8.93 µM) | MIC [9]: 4 µg/mL (≈ 8.93 µM) | MIC [10]: 0.5 to 1 µg/mL (≈ 1.12 to 2.23 µM) | MIC [11]: 1 µg/mL (≈ 2.23 µM) | MIC [12]: > 64 µg/mL | MIC [13]: 2 µg/mL (≈ 4.47 µM) | MIC [14]: > 64 µg/mL | MIC [15]: 4 µg/mL (≈ 8.93 µM) | MIC [16]: 4 µg/mL (≈ 8.93 µM)

OC(CNCCc1cccc(F)c1)Cn1ccc2cc(Br)ccc21 (stereo not drawn)
MIC [1]: 16 to 32 µg/mL (≈ 40.9 to 81.8 µM) | MIC [2]: 8 µg/mL (≈ 20.4 µM)

OC(CNCCc1cccc(F)c1)Cn1c2ccc(Br)cc2c2cc(Br)ccc21 (stereo not drawn)
MIC [1]: 1 to 2 µg/mL (≈ 1.92 to 3.84 µM) | MIC [2]: 1 to 2 µg/mL (≈ 1.92 to 3.84 µM)

OC(Cn1cncn1)Cn1c2ccc(Br)cc2c2cc(Br)ccc21 (stereo not drawn)
MIC [1]: 16 µg/mL (≈ 35.5 µM) | MIC [2]: 16 µg/mL (≈ 35.5 µM)

O[C@@H](CNCCc1c[nH]c2ccc(Cl)cc12)Cn1c2ccc(Br)cc2c2cc(Br)ccc21
MIC [1]: 1 µg/mL (≈ 1.74 µM) | MIC [2]: 1 µg/mL (≈ 1.74 µM)

O[C@@H](CNCCc1c[nH]c2cc(F)ccc12)Cn1c2ccc(Cl)cc2c2cc(Cl)ccc21
MIC [1]: 0.5 to 1 µg/mL (≈ 1.06 to 2.13 µM) | MIC [2]: 0.5 to 1 µg/mL (≈ 1.06 to 2.13 µM)

OC(CNc1cc(Cl)nc(Cl)n1)Cn1c2ccc(Br)cc2c2cc(Br)ccc21 (stereo not drawn)
MIC [1]: > 32 µg/mL | MIC [2]: > 32 µg/mL

OC(CNCCc1c[nH]c2cc(F)ccc12)Cn1c2ccc(Cl)cc2c2cc(Cl)ccc21 (racemic)
MIC [1]: 0.5 to 1 µg/mL (≈ 1.06 to 2.13 µM) | Activity [17]: Non-Toxic | MIC [3]: 1 µg/mL (≈ 2.13 µM) | MIC [4]: > 64 µg/mL | survival at 20 mg/kg [18]: 75% | MIC [5]: 4 µg/mL (≈ 8.5 µM) | MIC [6]: 1 µg/mL (≈ 2.13 µM) | MIC [7]: 1 µg/mL (≈ 2.13 µM) | MIC [8]: 1 µg/mL (≈ 2.13 µM) | Cmax [19]: 29700 ng/mL | MIC [9]: 1 µg/mL (≈ 2.13 µM) | MIC [10]: 0.5 µg/mL (≈ 1.06 µM) | MIC [11]: 1 µg/mL (≈ 2.13 µM) | MIC [12]: 8 µg/mL (≈ 17 µM) | half-life [20]: 10.3 h | MIC [13]: 1 µg/mL (≈ 2.13 µM) | MIC [14]: > 64 µg/mL | Activity [21]: Non-Toxic | AUC(0-t) at 24 h [22]: 20500 ng·h/mL | Vd [23]: 4.9 L/kg | Ratio [24]: 4 - 18 | MIC [15]: 1 µg/mL (≈ 2.13 µM) | Ratio [25]: 4 - 16 | MIC [16]: 1 µg/mL (≈ 2.13 µM) | MIC [2]: 0.5 to 1 µg/mL (≈ 1.06 to 2.13 µM) | clearance [26]: 6.9 mL/min/kg

OC(CNc1ccc(C(F)(F)F)cc1)Cn1c2ccc(Cl)cc2c2cc(Cl)ccc21 (stereo not drawn)
MIC [3]: 1 µg/mL (≈ 2.21 µM) | MIC [4]: > 64 µg/mL | MIC [5]: > 64 µg/mL | MIC [6]: 1 µg/mL (≈ 2.21 µM) | MIC [7]: 1 µg/mL (≈ 2.21 µM) | MIC [8]: 1 µg/mL (≈ 2.21 µM) | MIC [9]: 1 µg/mL (≈ 2.21 µM) | MIC [10]: 1 µg/mL (≈ 2.21 µM) | MIC [11]: 1 µg/mL (≈ 2.21 µM) | MIC [12]: > 64 µg/mL | MIC [13]: 2 µg/mL (≈ 4.41 µM) | MIC [14]: > 64 µg/mL | MIC [15]: 1 µg/mL (≈ 2.21 µM) | MIC [16]: 1 µg/mL (≈ 2.21 µM)

— ChEMBL document CHEMBL3868635, “Bromomethylthioindole Inspired Carbazole Hybrids as Promising Class of Anti-MRSA Agents” (ACS Med Chem Lett, 2016)
